Tests used:
[1] = LD50 (lethal dose) in mice; settings: mice, i.p.
Text: (§1) The in vivo efficacy of 3-BAABU and 3-IAABU of the present invention was asssessed in a murine model, along with known anti-tubule agents, vinblastine and paclitaxel, as a comparative standard. Approximately 10^6 P338 leukemia lymphoma cells/mouse were implanted intra-peritoneal (i.p.) into male C57 BL/6JX mice (Jackson Laboratories, N.Y.). On days 2 and 8 post-implantation, drugs were administrated i.p. at the following concentration ranges: 3-BAABU from 16.6 to 116 μmole/kg, 3-IAABU from 14.4 to 101 μmole/kg, vinblastine from 2.2 to 20 μmole/kg and paclitaxel from 28 to 57 μmole/kg.
(§2) Both control and treated animals were examined for ascitic tumor burden daily for 35 days. […] Therapeutic index was defined as the ratio of LD50 (lethal dose) to ED50 (effective dose).

[2] = system: repolymerized microtubules; assay: Inhibition of microtubule disassembly by spectrophotometry, cell free system; assay type: biochemical, calf; settings: 23 μM
Description: Purified tubulin was purchased from Sigma (St. Louis, Mo.). The effects of compounds 6, 7, 8, 9, paclitaxel and vinblastine on the microtubule assembly-disassembly process were determined using conditions recommended by the vendor. For assembly inhibition, 100 μl tubulin solution (500-600 μg protein/ml) was mixed gently with 400 μl reaction buffer containing 0.1 M MES (2-[N-morpholino]ethane sulfonic acid), 1 mM EGTA ([…]-N,N,N′,N′-tetraacetic acid), 0.5 mM MgCl2, 0.1 mM EDTA and 2.5 M gycerol at 37° C. Compounds 6, 7, 8, and 9 were next added to each sample at final concentrations of 10, 10, 1 and 1 μg/ml, respectively. After adding GTP to each sample to a final concentration of 1 mM, the microtubule assembly process was monitored by measuring the change of absorbance (OD) at 350 nm on a spectrophotometer (Ultrospec III, Pharmacia LKB, Uppsala, Sweden). […] Changes of absorbance (OD) were monitored at 350 nm for 30 min until the OD values in the controls returned to the starting level, i.e., when the assembly-disassembly cycle was completed.
Purified tubulin from calf brain was purchased from Sigma (St. Louis, Mo.). The effects of 3-BAABU (3-bromoacetoamido, benzoylurea) on the microtubule assembly-disassembly process were determined using the conditions recommended by the vendor. […]

[3] = system: P338 leukemia lymphoma cells; assay: Survival and ED50 in mice implanted i.p. with P338 lymphoma; assay type: in vivo, male C57 BL/6JX mice
Description: FIG. 9 is a plot graph of the survival rate of male C57 BL/6JX mice implanted (i.p.) with P338 lymphoma, from 10 to 40 days after implantation. Two groups were used for the study: a control group of ten and a test group of ten that were treated with 20 mg/kg, (i.p.) of compound 8 at 2 and 8 days post-implantation.
as §1, §2

Purified tubulin = assay: Inhibition of microtubule assembly by spectrophotometry, cell free system; assay type: biochemical, calf; settings: 23 μM
Description: Purified tubulin was purchased from Sigma (St. Louis, Mo.). The effects of compounds 6, 7, 8, 9, paclitaxel and vinblastine on the microtubule assembly-disassembly process were determined using conditions recommended by the vendor. For assembly inhibition, 100 μl tubulin solution (500-600 μg protein/ml) was mixed gently with 400 μl reaction buffer containing 0.1 M MES (2-[N-morpholino]ethane sulfonic acid), 1 mM EGTA ([…]-N,N,N′,N′-tetraacetic acid), 0.5 mM MgCl2, 0.1 mM EDTA and 2.5 M gycerol at 37° C. Compounds 6, 7, 8, and 9 were next added to each sample at final concentrations of 10, 10, 1 and 1 μg/ml, respectively. After adding GTP to each sample to a final concentration of 1 mM, the microtubule assembly process was monitored by measuring the change of absorbance (OD) at 350 nm on a spectrophotometer (Ultrospec III, Pharmacia LKB, Uppsala, Sweden). A completed assembly process was observed within 40 min at room temperature. For disassembly inhibition, compounds 6, 7, 8, and 9 were added, at the above concentrations, to covets with repolymerized microtubules as described above, and incubated in melting ice. Changes of absorbance (OD) were monitored at 350 nm for 30 min until the OD values in the controls returned to the starting level, i.e., when the assembly-disassembly cycle was completed.
Purified tubulin from calf brain was purchased from Sigma (St. Louis, Mo.). The effects of 3-BAABU (3-bromoacetoamido, benzoylurea) on the microtubule assembly-disassembly process were determined using the conditions recommended by the vendor. For assembly inhibition, 100 μl tubulin solution (500-600 μg protein/ml) was mixed gently with 400 μl reaction buffer containing 0.1 M MES, 1 mM EGTA, 0.5 mM MgCl2, 0.1 mM EDTA and 2.5 M glycerol at 37° C. 3-BAABU, paclitaxel or vinblastine were then added to each sample cuvet at final concentrations of 3.3, 23 or 22 μM, respectively. After adding GTP to each sample to a final concentration of 1 mM, the microtubule assembly process was monitored by measuring the change of absorbance (OD) every 5 min at 350 nm on a spectrophotometer (Ultrospec III, Pharmacia LKB, Uppsala, Sweden). A completed assembly process was observed within 40 min at room temperature. For disassembly inhibition, 3-BAABU (3.3 μM), paclitaxel (23 μM) or vinblastine (22 μM) was added to a cuvet with repolymerized microtubules according to the method described above, and incubated in melting ice. Changes of absorbance (OD) were monitored at 350 nm for 30 min until the OD values in the controls returned to the starting level, i.e., completion of the assembly-disassembly cycle. Solvent solutions were used as control and had no effect in either the assembly or disassembly process.

CC(=O)O[C@H]1C(=O)[C@@]2(C)[C@H]([C@H](OC(=O)c3ccccc3)[C@]3(O)C[C@H](OC(=O)[C@H](O)[C@@H](NC(=O)c4ccccc4)c4ccccc4)C(C)=C1C3(C)C)[C@]1(OC(C)=O)CO[C@@H]1C[C@@H]2O [Paclitaxel, reference compound]
LD50 [1]: 45 µmol/kg
inhibition of microtubule depolymerization [2]: significant inhibition
Survival IL % ([3]; P338 Lymphoma (i.p.), 30 mg/kg ip on days 2 & 8): 10%
Survival Mean ± SD ([3]; P338 Lymphoma (i.p.), 30 mg/kg ip on days 2 & 8, control 18.6 ± 1.1): 20.4 ± 3.2
ED50 ([3]; P338 leukemia lymphoma i.p. in mice, drug i.p. on days 2 and 8): 37 µmol/kg
activity on microtubular polymerization (Purified tubulin): no activity
